In patent publication US20030129753A1, “Chemical screening method” (priority 2002, published 2003):
≈ marks a conversion by molar mass, not a printed value.

Assay: solubility in ethanol by conventional methods
Assay type: physicochemical
Details: organic solvent or mixture, separate experiments by conventional methods
Experimental: The invention was tested on the sulfisoxazole/polyvinylpyrrolidone system in ethanol where sulfisoxazole was the active ingredient and polyvinylpyrrolidone was the carrier of choice. The total time required to evaporate ethanol for each sample was less than 30 seconds. […] This information is important because these solubility parameters determine the minimum amount (volume) of solvent required to co-dissolve the active ingredient and the carrier molecules. Next eight ethanol solutions were prepared of different sulfisoxazole to polyvinylpyrrolidone weight (molar) ratios.

SMILES: Cc1noc(NS(=O)(=O)c2ccc(N)cc2)c1C [sulfisoxazole]
- solubility: 16 mg/mL (≈ 59.9 mM)
